Earlier results as cited in US11179338B1, “Powder for oral suspension containing tadalafil” (AUSON PHARMACEUTICALS INC., priority 2021, dated 2021).

solubility in water: insoluble
SMILES: CN1CC(=O)N2[C@H](c3ccc4c(c3)OCO4)c3[nH]c4ccccc4c3C[C@@H]2C1=O [Tadalafil, pyrazino [1′,2′:1,6]pyrido[3,4-b]indole-1,4-dione, 6-(1,3-benzodioxol-5-yl) 2,3,6,7,12,12a-hexahydro-2-methyl-, (6R,12aR)-]
